According to publication PMC8326056 (Journal of Animal Science, 2021):
“Also recorded” adds a separate entry of the source.

Experiments:
[1] = system: bovine s.c. adipose tissue; assay: Lipolysis: NEFA release, s.c. adipose tissue explants; format: cell-based, bovine (Angus cross steers); conditions: s.c. adipose tissue, 30 min
[2] = system: bovine i.m. adipose tissue; assay: Lipolysis: glycerol release, i.m. adipose tissue explants; format: cell-based, bovine (Angus cross steers); conditions: i.m. adipose tissue, 30 min
[3] = system: bovine i.m. adipose tissue; assay: cAMP in i.m. adipose tissue explants (Cyclic AMP XP Assay Kit); format: cell-based, bovine (Angus cross steers)
[4] = system: bovine i.m. adipose tissue; assay: as above; format: cell-based, bovine (Angus cross steers); remark: listed apart in the source
Method: (§1) Fresh s.c. adipose tissue was cut into small pieces (50 to 100 mg, actual weight recorded) and i.m. adipose tissue was dissected from the LM as described previously ([Smith and Crouse, 1984]; [Miller et al., 1988]) and weighed. The s.c. and i.m. adipose samples were incubated according to 3 different sets of experimental conditions. Experiment 1: Small pieces of s.c. and i.m. adipose tissues (50 to 100 mg; 1 to 2 mm thick; [Smith and Prior, 1981]) were preincubated in 6-well tissue culture plates in a CO2/O2 incubator (NuAire model 4750 CO2 incubator, Plymouth, MN) for 30 min at 37 °C, 5% CO2 in KHB plus 5 mM glucose, 10 mM HEPES, and 0.5 mM theophylline. […] Experiment 2: The s.c. and i.m. adipose samples were preincubated in KHB plus 5 mM glucose, 10 mM HEPES, and 0.5 mM theophylline in the presence or absence of either 10 µM L-748,337 (β 3-AR antagonist) or 50 µM PRO (β-AR pan-antagonist). […] After the 30 min preincubation, either DOB (β 1-AA) or SAL (β 2-AA) was added to the culture plate wells in a concentration-dependent manner (10^–9 to 10^–4 M) for an additional 30 min. For all experiments, there were at least 3 replicate wells per treatment condition. After a total of 1-hr incubation, the adipose samples were homogenized in 1 mL cell lysis buffer (Cell Signaling Technology, Danvers, MA) with 1 mM phenymethylsulfony fluoride, and centrifuged at 14,000 × g for 30 min to remove tissue debris. The supernatant fractions were stored at −80 °C until subsequent analyses were performed.
(§2) The concentration of cAMP was determined based on the principle of competitive binding using the Cyclic AMP XP Assay Kit according to the manufacturer’s instructions. Cytosolic extracts from the adipose explants were co-incubated at room temperature for 3 hr in 96-well plates with the HRP-linked cAMP substrate coated onto an immobilized rabbit monoclonal cAMP antibody using a horizontal orbital plate shaker. After the reaction, color development was measured at 450 nm using an Epoch microplate reader (Biotek Instruments, Winooski, VT). All samples were analyzed in duplicate. A standard curve and cAMP concentrations were calculated using GrapPad Prism 6.04 software (GraphPad Software Inc., San Diego, CA).

[5] = system: bovine i.m. adipose tissue; assay: Lipolysis: NEFA release, i.m. adipose tissue explants; format: cell-based, bovine (Angus cross steers); conditions: i.m. adipose tissue, 30 min
bovine β 3-AR = target: T1, bovine β 3-AR (Bos taurus, UniProt P46626); assay: cAMP induction in CHO cells transfected with bovine β 3-AR construct (LANCE cAMP kit); format: cell-based; conditions: 45 min, 5 mM theophylline
T1 construct: expressed in transfected cells; host or cells: Chinese hamster ovary (CHO) cells, pcDNA3.1+ vector
T1 sequence (P46626 whole entry): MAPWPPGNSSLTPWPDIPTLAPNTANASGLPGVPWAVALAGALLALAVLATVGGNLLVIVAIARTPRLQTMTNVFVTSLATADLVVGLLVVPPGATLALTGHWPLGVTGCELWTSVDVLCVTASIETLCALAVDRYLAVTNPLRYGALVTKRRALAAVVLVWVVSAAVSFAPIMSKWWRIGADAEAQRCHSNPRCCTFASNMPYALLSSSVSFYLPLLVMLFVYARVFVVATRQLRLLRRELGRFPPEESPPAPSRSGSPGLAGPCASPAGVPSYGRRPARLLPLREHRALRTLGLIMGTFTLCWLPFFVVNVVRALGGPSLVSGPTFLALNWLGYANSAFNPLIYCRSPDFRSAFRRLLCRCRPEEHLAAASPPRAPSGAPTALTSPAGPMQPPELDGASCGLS
Method: (§3) Chinese Hamster Overy cells were transfected with either the bovine β 1-, β 2-, or β 3-AR constructs in pcDNA3.1+. Expression of the β-AR was confirmed by polymerase chain reaction (PCR). Thereafter, cells were grown in DMEM/Ham’s F12 media with 10% FBS and 1% penicillin/streptomycin at 37 °C under 5% CO2. Opti-plates (Perkin Elmer, Waltham, MA) were used for all experiments. For each experiment, cells were plated into 96-well tissue culture plates at 60,000 cells per well in a volume of 100 µL media. Cells were grown for 48 hr after plating prior to ligand addition and determination of cAMP.
(§4) All samples and standards were tested in duplicate for each repetition, and 4 repetitions per cell line were performed for each potential ligand tested. Controls included no treatment (media alone), 5 mM theophylline alone (an inhibitor of phosphodiesterase), 0.1 % DMSO alone, and water alone. None of the controls differed from media alone and are thus not reported. A volume of media equal to the volume of test material to be added was removed from the well just prior to stimulation. Theophylline was added in a volume of 25 µL to obtain a final concentration of 5 mM and each test molecule was delivered in 10 µL. Cells were returned to 37 °C and allowed to incubate for 45 min before media was removed and the cells lysed in 38 µL lysis buffer A. The LANCE cAMP detection kit (AD0262E) was purchased from Perkin Elmer. The LANCE assay instructions were followed for a 40 µL reaction volume with 15 µL of cell lysate. The reaction was incubated for 20 hr prior to measuring fluorescence. A standard curve was generated with increasing concentrations of cAMP, and the linear portion of the curve was used to calculate sample cAMP concentrations.

bovine β 2-AR = target: T2, bovine β 2-AR (Bos taurus, UniProt Q28044); assay: cAMP induction in CHO cells transfected with bovine β 2-AR construct (LANCE cAMP kit); format: cell-based; conditions: 45 min, 5 mM theophylline, ND = cAMP not detected or insufficient for EC50
T2 construct: expressed in transfected cells; host or cells: Chinese hamster ovary (CHO) cells, pcDNA3.1+ vector
T2 sequence (Q28044 whole entry): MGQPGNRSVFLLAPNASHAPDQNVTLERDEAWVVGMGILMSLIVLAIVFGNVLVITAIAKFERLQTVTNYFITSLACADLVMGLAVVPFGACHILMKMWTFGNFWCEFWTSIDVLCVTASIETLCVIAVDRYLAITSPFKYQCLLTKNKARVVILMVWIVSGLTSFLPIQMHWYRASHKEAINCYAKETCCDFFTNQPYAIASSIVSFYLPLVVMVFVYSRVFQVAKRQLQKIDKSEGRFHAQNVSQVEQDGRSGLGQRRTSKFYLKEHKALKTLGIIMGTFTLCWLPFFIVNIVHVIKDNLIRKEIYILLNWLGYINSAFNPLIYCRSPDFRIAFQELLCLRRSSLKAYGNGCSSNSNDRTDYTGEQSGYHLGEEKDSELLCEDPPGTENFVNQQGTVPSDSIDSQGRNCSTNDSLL
Method: All samples and standards were tested in duplicate for each repetition, and 4 repetitions per cell line were performed for each potential ligand tested. Controls included no treatment (media alone), 5 mM theophylline alone (an inhibitor of phosphodiesterase), 0.1 % DMSO alone, and water alone. […] A volume of media equal to the volume of test material to be added was removed from the well just prior to stimulation. Theophylline was added in a volume of 25 µL to obtain a final concentration of 5 mM and each test molecule was delivered in 10 µL. […] The reaction was incubated for 20 hr prior to measuring fluorescence. […]

bovine β 1-AR = target: T3, bovine β 1-AR (Bos taurus, UniProt Q9TT96); assay: cAMP induction in CHO cells transfected with bovine β 1-AR construct (LANCE cAMP kit); format: cell-based; conditions: 45 min, 5 mM theophylline, ND = cAMP not detected or insufficient for EC50
T3 construct: expressed in transfected cells; host or cells: Chinese hamster ovary (CHO) cells, pcDNA3.1+ vector
T3 sequence (Q9TT96 whole entry): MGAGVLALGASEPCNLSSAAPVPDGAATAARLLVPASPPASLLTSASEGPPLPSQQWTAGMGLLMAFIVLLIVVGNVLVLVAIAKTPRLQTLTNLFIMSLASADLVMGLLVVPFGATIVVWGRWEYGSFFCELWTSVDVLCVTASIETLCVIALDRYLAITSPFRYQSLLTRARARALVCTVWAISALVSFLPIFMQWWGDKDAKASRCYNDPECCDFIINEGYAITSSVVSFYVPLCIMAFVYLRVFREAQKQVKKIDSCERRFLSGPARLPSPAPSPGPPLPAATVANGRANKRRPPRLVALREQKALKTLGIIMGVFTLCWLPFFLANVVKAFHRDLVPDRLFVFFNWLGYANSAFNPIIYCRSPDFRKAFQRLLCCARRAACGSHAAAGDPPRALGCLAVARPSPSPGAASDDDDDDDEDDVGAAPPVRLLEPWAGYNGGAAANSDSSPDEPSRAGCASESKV
Method: as §3, §4

[6] = system: bovine s.c. adipose tissue; assay: Lipolysis: glycerol release, s.c. adipose tissue explants; format: cell-based, bovine (Angus cross steers); conditions: s.c. adipose tissue, 30 min
[7] = system: bovine s.c. adipose tissue; assay: cAMP in s.c. adipose tissue explants (Cyclic AMP XP Assay Kit); format: cell-based, bovine (Angus cross steers)
Method: as §1, §2

[8] = s.c., pretreatment 1 µM LUB alone or with 10 µM L-748,337, P < 0.05

## CC(C)(Cc1ccc(Oc2ncccc2C#N)cc1)NC[C@H](O)COc1ccccc1-c1cccs1.CC(C)(Cc1ccc(Oc2ncccc2C#N)cc1)NC[C@H](O)COc1ccccc1-c1cccs1.O=C(O)/C=C/C(=O)O [LUB, lubabegron fumarate]
[1]
  Effect on NEFA release (in words): did not affect; also recorded: Neither BRL-37344 nor LUB influenced cAMP or NEFA concentrations
[2]
  Effect on glycerol release (in words): did not affect
[3]; 30 min preincubation with 10 µM L-748,337, then LUB
  Effect of LUB on cAMP production in tissue pretreated with antagonist: depressed cAMP production
[3]; 30 min preincubation with 50 µM PRO, then LUB
  Effect of LUB on cAMP production in tissue pretreated with antagonist: no effect
[4]; i.m. adipose explants, 1 µM LUB
  Effect of LUB pretreatment on cAMP with DOB or SAL: without effect
[4]; i.m., cAMP readout, mean ± SEM, n = 12 cattle, combinations: preincubation with 1 µM LUB ± 10 µM L-748,337, N.A. = not possible to calculate EC50
  Adipose tissue lipolytic sensitivity (−logEC50) to β-AR ligands, i.m.: not demonstrable
[5]
  Effect on NEFA release (in words): did not affect; also recorded: not influenced
Bovine β 3-AR
  EC50: 6 nM
Bovine β 2-AR
  Induction of cAMP (EC50), β 2-Construct: no detectible agonistic activity
Bovine β 1-AR
  EC50: 190 nM
[6]
  Effect on glycerol release (in words): did not affect
[7]; s.c. adipose tissue, ligand alone, 30 min
  Effect on cAMP (in words): Neither BRL-37344 nor LUB influenced cAMP or NEFA concentrations
[7]; s.c., 30 min preincubation with 10 µM L-748,337, then LUB 10^–9 to 10^–4 M
  Effect of LUB on cAMP production in tissue pretreated with antagonist: reduced by LUB in a dose–response manner
[7]; s.c., 30 min preincubation with 50 µM PRO, then LUB 10^–9 to 10^–4 M
  Effect of LUB on cAMP production in tissue pretreated with antagonist: reduced by LUB in a dose–response manner
[7]; s.c., cAMP readout, mean ± SEM, n = 12 cattle, combinations: preincubation with 1 µM LUB ± 10 µM L-748,337
  Adipose tissue lipolytic sensitivity (−logEC50) to β-AR ligands, s.c.: 7.40 ± 1.78^2
[7]; s.c., pretreatment 1 µM LUB alone or with 10 µM L-748,337, P < 0.0001
  Effect on the EC50 of the SAL cAMP response: significantly increased
[7]; [8]
  Effect on the maximal cAMP response to DOB: significantly diminished the maximal cAMP response
  Effect on the maximal cAMP response to SAL: attenuated the maximal cAMP response
[7]; s.c., pretreatment 1 µM LUB alone or with 10 µM L-748,337, P > 0.05
  Effect on the EC50 of the cAMP response to DOB: not a significant change
